In the NIST ThermoML archive (doi:10.1021/je300972a):

Test: refractive index (Na D-line) (dimensionless); xn = mol fraction of the nth substance listed
Details: 101 kPa, Liquid, Standard Abbe refractometry

CCCC[n+]1ccc(C)cc1.O=S(=O)([N-]S(=O)(=O)C(F)(F)F)C(F)(F)F + CCCC[n+]1ccccc1.F[B-](F)(F)F
refractive index
Details | 293.15 K | 303.15 K | 313.15 K | 323.15 K | 333.15 K | 343.15 K | 353.15 K
x2 = 0 | 1.448 | 1.4449 | 1.4419 | 1.4388 | 1.4358 | 1.4328 | 1.4298
x2 = 0.0575 | 1.4479 | 1.4448 | 1.4418 | 1.4388 | 1.4357 | 1.4328 | 1.4298
x2 = 0.1136 | 1.4477 | 1.4446 | 1.4416 | 1.4386 | 1.4356 | 1.4327 | 1.4297
x2 = 0.2311 | 1.4474 | 1.4444 | 1.4414 | 1.4385 | 1.4356 | 1.4327 | 1.4298
x2 = 0.3515 | 1.4472 | 1.4443 | 1.4414 | 1.4385 | 1.4356 | 1.4327 | 1.4299
x2 = 0.4566 | 1.4471 | 1.4441 | 1.4413 | 1.4384 | 1.4356 | 1.4328 | 1.43
x2 = 0.5692 | 1.4469 | 1.4441 | 1.4413 | 1.4385 | 1.4357 | 1.433 | 1.4302
x2 = 0.673 | 1.4468 | 1.444 | 1.4413 | 1.4385 | 1.4358 | 1.4331 | 1.4304
x2 = 0.7836 | 1.4468 | 1.4441 | 1.4413 | 1.4386 | 1.4359 | 1.4333 | 1.4306
x2 = 0.889 | 1.4469 | 1.4442 | 1.4416 | 1.4389 | 1.4362 | 1.4336 | 1.431
x2 = 0.9535 | 1.447 | 1.4443 | 1.4417 | 1.439 | 1.4364 | 1.4338 | 1.4313
